Data on four compounds can be found in patent US9073880B2, “2-(2-phenylethenyl) 1,3-benzodiazepine derivatives useful for the treatment of cancer” (Yissum Research Development Company of the Hebrew …, priority 2010, dated 2015).

Assay type in all cases: cell-based
Assay [1] deals with Human ovary cancer A2780 cells. Nature of the assay: Cell proliferation, A2780 (Example 4). The following applies: compound in 2-hydroxypropyl-β-cyclodextrin. The procedure: (§1) Human ovary cancer A2780 cells lines were seeded at a density of 5000 cells/well, human melanoma A375 cells were plated at a density of 2,500 cells/well, human colon carcinoma HCT15 cells were plated at a density of 3,000 cells/well, human prostate carcinoma PC3 cells were plated at a density of 1,500 cells/well, human breast carcinoma MCF7 cells were plated at a density of 5,000 cells/well, human breast carcinoma MDA MB 468 cells were plated at a density of 6,000 cells/well, human myeloma U266, RPMI8226 and CAG cells were plated at a density of 10,000 cells/well. All cells were plated in 96-well plates in 90 μl growth medium containing 10% FCS, 100 units/ml penicillin and 100 μg/ml streptomycin. Compound 3 was added a day later in […] of 1% DMSO in DDW to obtain final concentrations of 0, 0.1, 0.3, 1, 3, and 10 μM. The final concentration of DMSO (0.1% DMSO) was kept constant in all samples. Following exposure of the cells to compound 3 for 72 hours at 37° C., adhered cells were fixed in 0.5% gluteraldehyde in medium for 10 min, washed three times with DDW, once with 0.1M sodium borate buffer pH 8.5 and stained with 1% methylene blue dissolved in 0.1M borate buffer solution for 60 min. Excess dye was washed out and cell-bound dye was eluted with 200 μl/well of 0.1M HCl. The optical density values were read at 630 nm in ELISA plate reader. Non-adhered cells were exposed to WST-1 reagent for 5 hours following 72 hours treatment with the inhibitors, and optical density values were read at 630 nm in ELISA plate reader. The data was analyzed in Microsoft Excel, using the vehicle control as 100% proliferation. The assays were performed in triplicates. The values of IC50 were derived from the dose-dependent growth curves obtained.
(§2) Cell proliferation assay was performed as described in Example 2. […]

In assay [2] the test system is human hepatocarcinoma HepG2 cells. In words: Cell proliferation, HepG2 (Example 4). The settings on record: compound in 2-hydroxypropyl-β-cyclodextrin. The procedure: as §1, §2
The test system of assay [3] is human breast cancer MDA-MB-468 cells. In words: Cell proliferation, MDA-MB-468 (Example 4). The settings on record: MDA-MB-468, breast cancer, compound in 2-hydroxypropyl-β-cyclodextrin. How it is done: as §1, §2
Assay [4] relates to human multiple myeloma MM1S cells. Nature of the assay: Cell proliferation, MM1S (Example 4). The following applies: MM1.S, compound in 2-hydroxypropyl-β-cyclodextrin. How it is done:
as §1
(§3) Cell proliferation assay was performed as described in Example 2. The following cell line were plated in 96-well plates in 90 μl growth medium containing 10% FCS, 100 units/ml penicillin and 100 μg/ml streptomycin: human ovary cancer A2780 cells (4500 cells/well), human melanoma A375 (1500 cells/well) and YUMAC (2500 cells/well) cells, human colon carcinoma HCT15 (3000 cells/well) and HCT116 (2000 cells/well) cells, human prostate carcinoma PC3 (3000 cells/well), PC3MM2 (3500 cells/well) and DU145 (300 cells/well) cells, human hepatocarcinoma HepG2 (3000 cells/well), human Ewing sarcoma SK-ES-1 (4,500 cells/well), human glioblastoma U138MG (2,000 cells/well), human breast cancer T47D (4000 cells/well) and MDA-MB-468 (6000 cells/well) cells, human small cell lung carcinoma NCI-H1975 (5000 cells/well) cells, human osteosarcoma Saos-2 (5000 cells/well) cells, human pancreatic cancer ASPC (2500 cells/well) cells, human bladder carcinoma T24P (1000 cells/well) cells, human gastric cancer NCI-N87 (5000 cells/well) cells, human lymphoma KARPAS (5,000 cells/well) cells, human leukemia K562 (5,000 cells/well) cells and human multiple myeloma MM1S (10,000 cells/well), U266 (10,000 cells/well) and CAG (5,000 cells/well). Compounds 2-5 and 7-8 were added a day later in 10 μl of 0.7% 2-hydroxypropyl-β-cyclodextrin to obtain final concentrations of 0, 0.1, 0.3, 1, 3 and 10 μM.
Compounds 2-5 and 7-8 of the present invention were tested for their inhibitory potential in cell proliferation assay. Human ovary cancer A2780 cells, human melanoma A375 and YUMAC cells, human colon carcinoma HCT15 and HCT116 cells, human prostate carcinoma PC3, PC3MM2 and DU145 cells, human hepatocarcinoma HepG2 cells, human Ewing sarcoma SK-ES-1 cells, human glioblastoma U138MG cells, human breast cancer T47D and MDA-MB-468 cells, human small cell lung carcinoma NCI-H1975 cells, human osteosarcoma Saos-2 cells, human pancreatic cancer ASPC cells, human bladder cancer T24P cells, human gastric cancer cells, human lymphoma KARPAS cells, human leukemia K562 cells, and human multiple myeloma MM1S, CAG and U266 cells, were exposed to increasing concentrations of compounds 2-5 and 7-8. […]

Assay [5] relates to human melanoma YUMAC cells. In words: Cell proliferation, YUMAC (Example 4). The following applies: compound in 2-hydroxypropyl-β-cyclodextrin. How it is done:
as §1, §3
(§4) Compounds 2-5 and 7-8 of the present invention were tested for their inhibitory potential in cell proliferation assay. […]

Assay [6] has as its system human colon carcinoma HCT116 cells. In words: Cell proliferation, HCT116 (Example 4). The following applies: HCT-116, HCT116, colon cancer, compound in 2-hydroxypropyl-β-cyclodextrin. How it is done: as §1, §3, §4
Assay [7] relates to human pancreatic cancer ASPC cells. Nature of the assay: Cell proliferation, ASPC (Example 4). The settings on record: compound in 2-hydroxypropyl-β-cyclodextrin. How it is done:
as §1, §3, §4

The subject of assay [8] is human leukemia K562 cells. Nature of the assay: Cell proliferation, K562 (Example 4). The settings on record: compound in 2-hydroxypropyl-β-cyclodextrin. The procedure:
as §1, §3, §4

The test system of assay [9] is human prostate carcinoma PC3MM2 cells. Nature of the assay: Cell proliferation, PC3MM2 (Example 4). The following applies: PC3MM2, prostate cancer, compound in 2-hydroxypropyl-β-cyclodextrin. How it is done: as §1, §2
Assay [10] concerns human prostate carcinoma DU145 cells. In words: Cell proliferation, DU145 (Example 4). The settings on record: DU-145, DU145, prostate cancer, compound in 2-hydroxypropyl-β-cyclodextrin. How it is done: as §1, §2
Assay [11] concerns human Ewing sarcoma SK-ES-1 cells. In words: Cell proliferation, SK-ES-1 (Example 4). The following applies: SK-ES1, SK-ES-1, Ewing sarcoma, compound in 2-hydroxypropyl-β-cyclodextrin. The procedure: as §1, §2
The subject of assay [12] is human glioblastoma U138MG cells. Nature of the assay: Cell proliferation, U138MG (Example 4). The following applies: U138-MG, compound in 2-hydroxypropyl-β-cyclodextrin. How it is done: as §1, §2
The subject of assay [13] is human breast cancer T47D cells. In words: Cell proliferation, T47D (Example 4). The settings on record: compound in 2-hydroxypropyl-β-cyclodextrin. The procedure: as §1, §2
A further assay deals with human NCI-H1975 cells. Nature of the assay: Cell proliferation, NCI-H1975 (Example 4). The following applies: NCI-H1975, SCLC, compound in 2-hydroxypropyl-β-cyclodextrin. The procedure: as §1, §2
The test system of assay [14] is human osteosarcoma Saos-2 cells. In words: Cell proliferation, Saos-2 (Example 4). The settings on record: Saos-2, osteosarcoma, compound in 2-hydroxypropyl-β-cyclodextrin. How it is done:
as §1, §2

Assay [15] deals with human bladder carcinoma T24P cells. Nature of the assay: Cell proliferation, T24P (Example 4). The settings on record: compound in 2-hydroxypropyl-β-cyclodextrin. How it is done: as §1, §2
In assay [16] the test system is human gastric cancer NCI-N87 cells. Nature of the assay: Cell proliferation, NCI-N87 (Example 4). The following applies: compound in 2-hydroxypropyl-β-cyclodextrin. How it is done:
as §1, §2

Assay [17] relates to human lymphoma KARPAS cells. In words: Cell proliferation, KARPAS (Example 4). The following applies: compound in 2-hydroxypropyl-β-cyclodextrin. How it is done: as §1, §2
The test system of assay [18] is human multiple myeloma CAG cells. Nature of the assay: Cell proliferation, CAG (Example 4). The following applies: compound in 2-hydroxypropyl-β-cyclodextrin. The procedure: as §1, §2

Usually IC50 stands for the midpoint of a concentration-inhibition curve. Take `N#C/C(=C\c1cc(O)c(O)c(I)c1)c1ncc2cc(O)c(=O)c(O)c-2s1` [Compound 2]: the IC50 in assay [1] worked out at 0.6 µM; in assay [2], 2.8 µM; in assay [3] it was 1.2 µM; in [4] it was 2 µM.

For `O=c1c(O)c2sc(/C=C/c3cc(O)c(O)c(Br)c3)ncc-2c(Br)c1O` [Compound 8], the concentration for half-maximal inhibition (IC50) in assay [5] came to 0.5 µM; in [6], 0.8 µM; in [7] it was 17.7 µM; in assay [8] it was 0.8 µM; in assay [4], 0.5 µM.

For the compound `O=c1c(O)cc2cnc(/C=C/c3cc(O)c(O)c(I)c3)sc-2c1O` [Compound 4], the half-maximal inhibitory concentration (IC50) in assay [1] is 0.3 µM; in assay [5] it was 0.5 µM; in [6], 0.7 µM; in [9], 0.9 µM; in [10] it was 2 µM; in assay [2] it was 2.7 µM. Also, the IC50 came out at 0.2 µM in assay [11]; 0.3 µM in assay [12]; 0.7 µM in assay [13]; 2.2 µM in assay [3]; 1.1 µM in the assay on human NCI-H1975 cells; 2 µM in assay [14]. Also, the 50% inhibitory concentration (IC50) in [7] amounted to 18.5 µM; in [15] it was 3.2 µM; in assay [16], 4.8 µM; in assay [17], 1.5 µM; in [8], 0.9 µM; in assay [18] it was 3 µM. For the same compound, in [4], the IC50 is 0.7 µM.

`O=c1c(O)cc2cnc(/C=C/c3cc(O)c(O)cc3Br)sc-2c1O` [Compound 7]: the concentration for half-maximal inhibition (IC50) in assay [5] is 0.5 µM; in assay [6], 1.4 µM; in [10] it was 2.3 µM; in assay [11] it was 0.2 µM; in assay [12] it was 0.8 µM; with human NCI-H1975 cells it was 2.6 µM. Also, the IC50 in assay [14] was 2.7 µM; in [7], 13.3 µM; in assay [15], 4.5 µM; in [16], 8.4 µM; in assay [17], 1.8 µM; in assay [8], 1.8 µM. Moreover, the IC50 in assay [18] amounted to 4.9 µM; in assay [4], 0.2 µM.
